Measurements: US5616615A, “Enaminone esters” (priority 1995, dated 1997)
Like-named read-outs stand apart in the source and are kept apart here.

Legend:
[1] = test system: Maximal electroshock seizures; experiment: MES maximal electroshock seizure test, mice ip; type: in vivo; design: TPE (time of peak effect), activity: unit not given here; settings: ip; for responders at 10 mg/kg: read-out: MES, animals protected/tested (converted); for responders at 300 mg/kg: read-out: MES, animals protected/tested
Protocol: Three tests were performed:
1. MES--Electroshock Seizure Test
(§1) Maximal electroshock seizures are elicited with a 60-cycle alternating current of 50 mA intensity (5-7 times that necessary to elicit minimal electroshock seizures) delivered via corneal electrodes for 0.2 seconds. A drop of 0.9% saline is instilled in the eye prior to application of the electrodes in order to […].

[2] = test system: Subcutaneous Pentylenetetrazol seizure; experiment: sc Met subcutaneous pentylenetetrazol (Metrazol) seizure test, mice; type: in vivo; settings: Mus musculus, sc; for responders at 10 mg/kg: read-out: scMet, animals protected/tested; for responders at 300 mg/kg: read-out: scMet, animals protected/tested (converted)
[3] = in vivo; settings: mouse, in vivo, ip
[4] = test system: electroshock seizures; experiment: MES maximal electroshock test, rats ip; type: in vivo; settings: 100 mg/kg
Source text: as §1

[5] = test system: Maximal electroshock seizures; experiment: Phase VI oral MES test, rats; type: in vivo; settings: oral; for responders at 50 mg/kg: Rattus norvegicus, read-out: MES, animals protected/tested (converted)
Source text: as §1
(§2) This oral screen is designated as phase VI.

[6] = in vivo; settings: rat, po
Source text: as §2

[7] = test system: Corneal Kindled rats; experiment: Corneal kindling; type: in vivo
Protocol: Corneal kindling studies were performed in our laboratories on 12 and 27 and the results are shown in Tables XI and XII and FIGS. 1A and 1B. Comparative data for the commercial products are included. Seizures evoked in electroshock-kindled rats provide a suitable model consistent with complex partial seizures evolving into generalized motor seizures in humans.
^a Rats kindled to Stage 5. Endpoint was reduction from Stage 5 to […]

[8] = test system: Amygdala Kindled Seizures; experiment: Suppression of amygdala kindled seizures; type: in vivo
Protocol: Compounds 12 and 27 were evaluated in our laboratory for suppression of amygdala kindled seizures.

[9] = test system: bicuculline; experiment: Phase V quantification against bicuculline; type: in vivo; settings: 12.5, 25, 50 and 100 mg/kg
Protocol: (§3) Both 12 and 27 were evaluated in Phase V of the ADD Program evaluation scheme. Phase V provides quantification against bicuculline, picrotoxin, pentylenetetrazol, and strychnine. This screen provides information on the mechanism of action of the anticonvulsant activity. Bicuculline, picrotoxin, and strychnine correspond to GABA inhibitory function, chloride channel inhibition and inhibition by glycine respectively.

[10] = test system: picrotoxin; experiment: Phase V quantification against picrotoxin; type: in vivo; settings: 12.5, 25, 50 and 100 mg/kg
Protocol: as §3

[11] = test system: pentylenetetrazol; experiment: Phase V quantification against pentylenetetrazol; type: in vivo; settings: 12.5, 25, 50 and 100 mg/kg
Protocol: as §3

[12] = test system: strychnine; experiment: Phase V quantification against strychnine; type: in vivo; settings: 12.5, 25, 50 and 100 mg/kg
Protocol: as §3

[13] = test system: seizures; experiment: Anticonvulsant evaluation (ASP phase I / overall); type: in vivo, mice
How it was run: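 Male Carworth Farms #1 mice; maximal electroshock seizures elicited by 60-cycle AC, 50 mA, 0.2 s via corneal electrodes after a drop of 0.9% saline in the eye. Animals observed for 30 minutes.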

[14] = Neurotoxicity, rats ip; settings: 100 mg/kg
Protocol: The rotorod test is used to elevate neurotoxicity. The animal is placed on a 1 inch diameter knurled plastic rod rotating at 6 rpm. […] Neurologic toxicity is defined as the failure of the animal to remain on the rod for 1 minute and the results are expressed as the number of animals protected/the number of animals tested.
The toxicity evaluation for the commercial agents as previously indicated was based on the onset of ataxia.

[15] = Kase et al., Jap. J. Pharmacol. 1974; cited from earlier work

COC(=O)C1C(=O)C=C(NCc2ccccc2)CC1C (stereo not drawn) [Compound 12, Methyl 4-(benzyl)amino-6-methyl-2-oxocyclohex-3-en-1-oate]
responders at 10 mg/kg ([1]; Mus musculus, 0.5 h, 30 min): 66.7% | responders at 300 mg/kg ([1]; Mus musculus, 0.5 h, 30 min): 100% | responders at 10 mg/kg ([1]; Mus musculus, 4 h, 4 h): 0% | responders at 300 mg/kg ([1]; Mus musculus, 4 h, 4 h): 0% | ED50 ([1]; Mus musculus, Phase II, time of peak effect): 64.7 mg/kg | TPE (time of peak effect), activity ([1]; Phase II): 0.5 | responders at 10 mg/kg ([2]; 0.5 h, 30 min): 10% | responders at 300 mg/kg ([2]; 0.5 h, 30 min): 0% | responders at 10 mg/kg ([2]; 4 h, 4 h): 10% | responders at 300 mg/kg ([2]; 4 h, 4 h): 0% | TD50 [3]: > 500 mg/kg | TPE (time of peak effect), toxicity [3]: 1 | selectivity ratio [3]: 7.73 | MES, animals protected/tested ([4]; 0.25 h (Table X)): 4/4 | MES, animals protected/tested ([4]; 0.50 h (Table X)): 4/4 | MES, animals protected/tested ([4]; 1.00 h (Table X)): 4/4 | MES, animals protected/tested ([4]; 2.00 h (Table X)): 4/4 | MES, animals protected/tested ([4]; 4.00 h (Table X)): 3/4 | ED50 ([5]; Phase VI, rat): 26.8 mg/kg | responders at 50 mg/kg ([5]; 0.5 h, 0.50 h): 100% | responders at 50 mg/kg ([5]; 0.25 h): 50% | responders at 50 mg/kg ([5]; 1.00 h): 75% | responders at 50 mg/kg ([5]; 2.00 h): 50% | responders at 50 mg/kg ([5]; 4.00 h): 50% | TD50 [6]: > 500 mg/kg | selectivity ratio [6]: 18.7 | Tox, animals toxic/tested ([6]; 50 mg/kg): 0/4 | % Reduction ([7]; 50 mg/kg): 17% | % Reduction ([7]; 60 mg/kg): 23% | % Reduction ([7]; 75 mg/kg): 75% | ED50 ([7]; Rattus norvegicus, po, 0.5 h, read-out: ED50 (reduction from Stage 5 to Stage 4)): 41.9 mg/kg | Afterdischarge Amygdala: Duration ([8]; 500 mg/kg): 73.9 s | Afterdischarge Cortex: Duration ([8]; 500 mg/kg): 78.9 s | Afterdischarge Cortex: Latency ([8]; 500 mg/kg): 2.8 s | Behavioral Seizure: Duration ([8]; 500 mg/kg): 79.5 s | Behavioral Seizure: Latency ([8]; 500 mg/kg): 2.1 s | Forelimb Clonus: Duration ([8]; 500 mg/kg): 44.2 s | Forelimb Clonus: Latency ([8]; 500 mg/kg): 9.3 s | Seizure Stage ([8]; 500 mg/kg): 5.0 | suppression of amygdala kindled seizures ([8]; in vivo): no significant activity | protection against bicuculline [9]: uniformly inactive | protection against picrotoxin [10]: uniformly inactive | protection against pentylenetetrazol [11]: uniformly inactive | protection against strychnine [12]: uniformly inactive | minimal effective dose ([13]; Mus musculus, ip, Phase I, read-out: ASP Classification): < 100 mg/kg | anticonvulsant activity ([13]; mouse, in vivo): highly active | Tox, animals toxic/tested ([14]; 0.25 h (Table X)): 0/4 | Tox, animals toxic/tested ([14]; 0.50 h (Table X)): 0/4 | Tox, animals toxic/tested ([14]; 1.00 h (Table X)): 0/4 | Tox, animals toxic/tested ([14]; 2.00 h (Table X)): 0/4 | Tox, animals toxic/tested ([14]; 4.00 h (Table X)): 0/4 | toxicity ([14]; ip, four hour evaluation): No toxicity was noted

CC1(C)CC(=O)C(CN2CCCCC2)=C(Nc2ccccc2Cl)C1 [MK 1-203, 5,5-dimethyl-3-(o-chloro)phenylamino-2-(N-piperidinylmethyl)cyclohex-2-ene-1-one]
pharmacological actions [15]: potent analgesics with morphine-like, as well as anticonvulsant and papaverine-like, actions

COc1cccc(C2=C(CN(C)CCc3ccccc3)C(=O)CC(C)(C)C2)c1 [MK 1-907, 5,5-dimethyl-3-(m-methoxy)phenyl-2-N-methyl-N-phenethylaminomethylcyclohex-2-ene-1-one]
pharmacological actions [15]: potent analgesics with morphine-like, as well as anticonvulsant and papaverine-like, actions
